Test results as given in US7265120B2, “Pyrazine derivatives and pharmaceutical use thereof” (Astellas Pharma Inc., priority 2004, dated 2007).

Compound	melting point [°C]
CC(C)n1nc(-c2nc(-c3cnn(C)c3)c(N)nc2-c2ccccc2)ccc1=O [Example 93, 6-[5-amino-6-(1-methyl-1H-pyrazol-4-yl)-3-phenyl-2-pyrazinyl]-2-isopropyl-3(2H)-pyridazinone]	201 to 203
CCOC(=O)C=Cc1nc(-c2ccc(=O)n(C(C)C)n2)c(-c2ccccc2)nc1N [Example 95, ethyl 3-[3-amino-6-(1-isopropyl-6-oxo-1,6-dihydro-3-pyridazinyl)-5-phenyl-2-pyrazinyl]acrylate]	233 to 236
CC(C)n1nc(-c2nc(NCc3ccccc3)c(N)nc2-c2ccccc2)ccc1=O [Example 96, 6-[5-amino-6-(benzylamino)-3-phenyl-2-pyrazinyl]-2-isopropyl-3(2H)-pyridazinone]	181 to 183.5
COc1ccc(CNc2nc(-c3ccc(=O)n(C(C)C)n3)c(-c3ccccc3)nc2N)cc1 [Example 97, 6-{5-amino-6-[(4-methoxybenzyl)amino]-3-phenyl-2-pyrazinyl}-2-isopropyl-3(2H)-pyridazinone]	188.5 to 191.5
CC(C)n1nc(-c2nc(NCc3ccccn3)c(N)nc2-c2ccccc2)ccc1=O [Example 98, 6-{5-amino-3-phenyl-6-[(2-pyridylmethyl)amino]-2-pyrazinyl}-2-isopropyl-3(2H)-pyridazinone]	192 to 194
CCCCNc1nc(-c2ccc(=O)n(C(C)C)n2)c(-c2ccccc2)nc1N [Example 99, 6-[5-amino-6-(butylamino)-3-phenyl-2-pyrazinyl]-2-isopropyl-3(2H)-pyridazinone]	200 to 202
CCCCNc1nc(-c2ccc(=O)n(C)n2)c(-c2ccccc2)nc1N [Example 100, 6-[5-amino-6-(butylamino)-3-phenyl-2-pyrazinyl]-2-methyl-3(2H)-pyridazinone]	253 to 255
C=CCNc1nc(-c2ccc(=O)n(C(C)C)n2)c(-c2ccccc2)nc1N [Example 101, 6-[6-(allylamino)-5-amino-3-phenyl-2-pyrazinyl]-2-isopropyl-3(2H)-pyridazinone]	208 to 210
COCCNc1nc(-c2ccc(=O)n(C(C)C)n2)c(-c2ccccc2)nc1N [Example 102, 6-{5-amino-6-[(2-methoxyethyl)amino]-3-phenyl-2-pyrazinyl}-2-isopropyl-3(2H)-pyridazinone]	208 to 209.5
CC(C)n1nc(-c2nc(NCCN3CCOCC3)c(N)nc2-c2ccccc2)ccc1=O [Example 104, 6-(5-amino-6-{[2-(4-morpholinyl)ethyl]amino}-3-phenyl-2-pyrazinyl)-2-isopropyl-3(2H)-pyridazinone]	230 to 232.5
CC(C)n1nc(-c2nc(NCCc3ccccn3)c(N)nc2-c2ccccc2)ccc1=O [Example 106, 6-(5-amino-3-phenyl-6-{[2-(2-pyridyl)ethyl]amino}-2-pyrazinyl)-2-isopropyl-3(2H)-pyridazinone]	204 to 206
CC(C)n1nc(-c2nc(NC3CCN(Cc4ccccc4)CC3)c(N)nc2-c2ccccc2)ccc1=O [Example 107, 6-{5-amino-6-[(1-benzyl-4-piperidinyl)amino]-3-phenyl-2-pyrazinyl}-2-isopropyl-3(2H)-pyridazinone]	214 to 216.5
COCCNc1nc(-c2ccc(=O)n(C)n2)c(-c2ccccc2)nc1N [Example 120, 6-{5-amino-6-[(2-methoxyethyl)amino]-3-phenyl-2-pyrazinyl}-2-methyl-3(2H)-pyridazinone]	231 to 232.5
Cn1nc(-c2nc(NCCN3CCCCC3)c(N)nc2-c2ccccc2)ccc1=O [Example 121, 6-(5-amino-3-phenyl-6-{[2-(1-piperidinyl)ethyl]amino}-2-pyrazinyl)-2-methyl-3(2H)-pyridazinone]	155 to 157
Cn1nc(-c2nc(NCCN3CCOCC3)c(N)nc2-c2ccccc2)ccc1=O [Example 122, 6-(5-amino-6-{[2-(4-morpholinyl)ethyl]amino}-3-phenyl-2-pyrazinyl)-2-methyl-3(2H)-pyridazinone]	226 to 229
Cn1nc(-c2nc(NCCNc3ccccc3)c(N)nc2-c2ccccc2)ccc1=O [Example 123, 6-{5-amino-6-[(2-anilinoethyl)amino]-3-phenyl-2-pyrazinyl}-2-methyl-3(2H)-pyridazinone]	181 to 183
Cn1nc(-c2nc(NCc3ccco3)c(N)nc2-c2ccccc2)ccc1=O [Example 124, 6-{5-amino-6-[(2-furylmethyl)amino]-3-phenyl-2-pyrazinyl}-2-methyl-3(2H)-pyridazinone]	249 to 252
Cn1nc(-c2nc(NCCc3ccccc3)c(N)nc2-c2ccccc2)ccc1=O [Example 125, 6-{5-amino-3-phenyl-6-[(2-phenylethyl)amino]-2-pyrazinyl}-2-methyl-3(2H)-pyridazinone]	232 to 234
Cn1nc(-c2nc(NCCCc3ccccc3)c(N)nc2-c2ccccc2)ccc1=O [Example 126, 6-{5-amino-3-phenyl-6-[(3-phenylpropyl)amino]-2-pyrazinyl}-2-methyl-3(2H)-pyridazinone]	196 to 197.5
Cn1nc(-c2nc(NCCc3ccccn3)c(N)nc2-c2ccccc2)ccc1=O [Example 127, 6-(5-amino-3-phenyl-6-{[2-(2-pyridyl)ethyl]amino}-2-pyrazinyl)-2-methyl-3(2H)-pyridazinone]	224 to 227
Cn1nc(-c2nc(NC3CCN(Cc4ccccc4)C3)c(N)nc2-c2ccccc2)ccc1=O (stereo not shown) [Example 128, 6-{5-amino-6-[(1-benzyl-3-pyrrolidinyl)amino]-3-phenyl-2-pyrazinyl}-2-methyl-3(2H)-pyridazinone]	183 to 185

The next lines start with the values.

melting point [°C]	Compound
234 to 236.5	CC(=O)c1nc(-c2ccc(=O)n(C(C)C)n2)c(-c2ccccc2)nc1N [Example 94, 6-(6-acetyl-5-amino-3-phenyl-2-pyrazinyl)-2-isopropyl-3(2H)-pyridazinone]
174 to 176	CC(C)n1nc(-c2nc(N(C)C)c(N)nc2-c2ccccc2)ccc1=O [Example 96, 6-[5-amino-6-(dimethylamino)-3-phenyl-2-pyrazinyl]-2-isopropyl-3(2H)-pyridazinone]
204.5 to 207	CC(C)n1nc(-c2nc(NCCN3CCCCC3)c(N)nc2-c2ccccc2)ccc1=O [Example 103, 6-(5-amino-3-phenyl-6-{[2-(1-piperidinyl)ethyl]amino}-2-pyrazinyl)-2-isopropyl-3(2H)-pyridazinone]
219 to 221	CC(C)n1nc(-c2nc(NCC3CCCCC3)c(N)nc2-c2ccccc2)ccc1=O [Example 105, 6-{5-amino-6-[(cyclohexylmethyl)amino]-3-phenyl-2-pyrazinyl}-2-isopropyl-3(2H)-pyridazinone]
183 to 185	CC(C)n1nc(-c2nc(N3CCCCC3)c(N)nc2-c2ccccc2)ccc1=O [Example 108, 6-[5-amino-3-phenyl-6-(1-piperidinyl)-2-pyrazinyl]-2-isopropyl-3(2H)-pyridazinone]
150 to 152	CC(C)n1nc(-c2nc(N3CCC(N(C)C)C3)c(N)nc2-c2ccccc2)ccc1=O (stereo not shown) [Example 109, 6-{5-amino-6-[3-(dimethylamino)-1-pyrrolidinyl]-3-phenyl-2-pyrazinyl}-2-isopropyl-3(2H)-pyridazinone]
179 to 181	COC1CCN(c2nc(-c3ccc(=O)n(C(C)C)n3)c(-c3ccccc3)nc2N)CC1 [Example 110, 6-[5-amino-6-(4-methoxy-1-piperidinyl)-3-phenyl-2-pyrazinyl]-2-isopropyl-3(2H)-pyridazinone]
220 to 222	CC(C)n1nc(-c2nc(N3CCC(NS(C)(=O)=O)CC3)c(N)nc2-c2ccccc2)ccc1=O [Example 111, N-{1-[3-amino-6-(1-isopropyl-6-oxo-1,6-dihydro-3-pyridazinyl)-5-phenyl-2-pyrazinyl]-4-piperidinyl}methanesulfonamide]
157 to 159	CC(C)n1nc(-c2nc(N3CCNCC3)c(N)nc2-c2ccccc2)ccc1=O [Example 112, 6-[5-amino-3-phenyl-6-(1-piperazinyl)-2-pyrazinyl]-2-isopropyl-3(2H)-pyridazinone]
155 to 157	CC(C)n1nc(-c2nc(N3CCN(C)CC3)c(N)nc2-c2ccccc2)ccc1=O [Example 113, 6-[5-amino-6-(4-methyl-1-piperazinyl)-3-phenyl-2-pyrazinyl]-2-isopropyl-3(2H)-pyridazinone]
88 to 91	CC(C)n1nc(-c2nc(N3CCN(Cc4ccccn4)CC3)c(N)nc2-c2ccccc2)ccc1=O [Example 114, 6-{5-amino-3-phenyl-6-[4-(2-pyridylmethyl)-1-piperazinyl]-2-pyrazinyl}-2-isopropyl-3(2H)-pyridazinone]
193 to 195	CC(C)n1nc(-c2nc(N3CCN(c4ccccc4)CC3)c(N)nc2-c2ccccc2)ccc1=O [Example 115, 6-[5-amino-3-phenyl-6-(4-phenyl-1-piperazinyl)-2-pyrazinyl]-2-isopropyl-3(2H)-pyridazinone]
194 to 196	COc1ccc(N2CCN(c3nc(-c4ccc(=O)n(C(C)C)n4)c(-c4ccccc4)nc3N)CC2)cc1 [Example 116, 6-{5-amino-6-[4-(4-methoxyphenyl)-1-piperazinyl]-3-phenyl-2-pyrazinyl}-2-isopropyl-3(2H)-pyridazinone]
221 to 225	CC(=O)N1CCN(c2nc(-c3ccc(=O)n(C(C)C)n3)c(-c3ccccc3)nc2N)CC1 [Example 117, 6-[6-(4-acetyl-1-piperazinyl)-5-amino-3-phenyl-2-pyrazinyl]-2-isopropyl-3(2H)-pyridazinone]
205 to 207.5	CC(C)n1nc(-c2nc(N3CCN4CCCC4C3)c(N)nc2-c2ccccc2)ccc1=O (stereo not shown) [Example 118, 6-[5-amino-6-(hexahydropyrrolo[1,2-a]pyrazin-2(1H)-yl)-3-phenyl-2-pyrazinyl]-2-isopropyl-3(2H)-pyridazinone]
235 to 238	CC(C)n1nc(-c2nc(N3CC4CCC(C3)O4)c(N)nc2-c2ccccc2)ccc1=O [Example 119, 6-[5-amino-6-(8-oxa-3-azabicyclo[3.2.1]oct-3-yl)-3-phenyl-2-pyrazinyl]-2-isopropyl-3(2H)-pyridazinone]
